This assay relates to L1210 leukemia ip in BDF1 mice, survival T/C. The assay is described as follows: NCI In Vivo Anticancer Drug Screen. Data for tumor model L1210 Leukemia (intraperitoneal) in B6D2F1 (BDF1) mice. The conditions noted are these: endpoint: mean survival time, higher = longer survival. In short, it runs like this: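 Transplanted-tumor mice were given test agent; controls received vehicle only. Survival readings from the two groups were divided (treated over control).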

Setting [1] is: dose: 100.0 mg/kg/injection, schedule: Q01DX009 (ip), vehicle: Klucel (hydroxypropylcellulose) (HPC).
The mark [2] stands for this setting: dose: 100.0 mg/kg/injection, schedule: Q04DX003 (ip), vehicle: Klucel (hydroxypropylcellulose) (HPC).
The mark [3] stands for this setting: dose: 200.0 mg/kg/injection, schedule: Q01DX009 (ip), vehicle: Klucel (hydroxypropylcellulose) (HPC).
The mark [4] stands for this setting: dose: 200.0 mg/kg/injection, schedule: Q04DX003 (ip), vehicle: Klucel (hydroxypropylcellulose) (HPC).
Setting [5] is: dose: 400.0 mg/kg/injection, schedule: Q01DX009 (ip), vehicle: Klucel (hydroxypropylcellulose) (HPC).
[6] abbreviates: dose: 400.0 mg/kg/injection, schedule: Q04DX003 (ip), vehicle: Klucel (hydroxypropylcellulose) (HPC).
Where [7] appears, read: dose: 50.0 mg/kg/injection, schedule: Q01DX009 (ip), vehicle: Klucel (hydroxypropylcellulose) (HPC).
The mark [8] stands for this setting: dose: 100.0 mg/kg/injection, schedule: Q01DX009 (ip), vehicle: saline.
Setting [9] is: dose: 200.0 mg/kg/injection, schedule: Q01DX009 (ip), vehicle: saline.
[10] abbreviates: dose: 25.0 mg/kg/injection, schedule: Q01DX009 (ip), vehicle: Klucel (hydroxypropylcellulose) (HPC).
The mark [11] stands for this setting: dose: 100.0 mg/kg/injection, schedule: Q01DX009 (ip), vehicle: saline with Tween-80.
The mark [12] stands for this setting: dose: 200.0 mg/kg/injection, schedule: Q01DX009 (ip), vehicle: saline with Tween-80.
[13] abbreviates: dose: 400.0 mg/kg/injection, schedule: Q01DX009 (ip), vehicle: saline with Tween-80.
Where [14] appears, read: dose: 25.0 mg/kg/injection, schedule: Q04DX003 (ip), vehicle: Klucel (hydroxypropylcellulose) (HPC).

Our source for the T/C values is PubChem BioAssay AID248 (DTP/NCI, 2004).

Molecules are shown by their SMILES. Values joined by “and” are separate entries in the source; they are usually repeats but may differ in a detail not shown here. Identical values can stand only once. Toxic doses and inconclusive results are not listed.

For the compound `O=S(CCO)CCS(=O)CCO` (configuration not stated), the T/C is, setting by setting: (dose: 75.0 mg/kg/injection, schedule: Q01DX009 (ip), vehicle: saline) 95 % of control; (dose: 100.0 mg/kg/injection, schedule: Q04DX003 (ip), vehicle: saline) 106 % of control; (dose: 150.0 mg/kg/injection, schedule: Q01DX009 (ip), vehicle: saline) 101 % of control; (dose: 200.0 mg/kg/injection, schedule: Q04DX003 (ip), vehicle: saline) 110 % of control; (dose: 300.0 mg/kg/injection, schedule: Q01DX009 (ip), vehicle: saline) 97 % of control; (dose: 400.0 mg/kg/injection, schedule: Q04DX003 (ip), vehicle: saline) 100 % of control.

Regarding `O=C(CN1CC1)NCCCCCCCNC(=O)CN1CC1`, the T/C is, setting by setting: (dose: 6.5 mg/kg/injection, schedule: Q01DX001 (ip), vehicle: carboxymethylcellulose (CMC)) 120 % of control; (dose: 7.0 mg/kg/injection, schedule: Q01DX009 (ip), vehicle: carboxymethylcellulose (CMC)) 94 % of control; (dose: 9.7 mg/kg/injection, schedule: Q01DX001 (ip), vehicle: carboxymethylcellulose (CMC)) 123 % of control; (dose: 11.0 mg/kg/injection, schedule: Q01DX009 (ip), vehicle: carboxymethylcellulose (CMC)) 100 % of control; (dose: 16.0 mg/kg/injection, schedule: Q01DX009 (ip), vehicle: carboxymethylcellulose (CMC)) 94 % of control; (dose: 25.0 mg/kg/injection, schedule: Q01DX009 (ip), vehicle: carboxymethylcellulose (CMC)) 103 % of control. Also, the T/C (dose: 33.0 mg/kg/injection, schedule: Q01DX001 (ip), vehicle: carboxymethylcellulose (CMC)) is 154 % of control.

For `CNC(=O)c1ccccc1C(O)(c1ccccc1)c1ccccc1`, the T/C runs as follows: under setting [1], 95 % of control; under setting [2], 94 % of control; under setting [3], 98 % of control; under setting [4], 97 % of control; under setting [5], 101 % of control; under setting [6], 90 % of control.

`O=c1[nH]cn[nH]1`: the T/C reads like this: (dose: 100.0 mg/kg/injection, schedule: Q04DX003 (ip), vehicle: saline sonified) 105 % of control; (dose: 200.0 mg/kg/injection, schedule: Q04DX003 (ip), vehicle: saline sonified) 114 % of control; (dose: 400.0 mg/kg/injection, schedule: Q04DX003 (ip), vehicle: saline sonified) 101 % of control.

`NC(N)=N/N=C/c1c[nH]c2ccc(OCc3ccccc3)cc12`: the T/C by setting is: (dose: 15.0 mg/kg/injection, schedule: Q01DX Z (ip), vehicle: methylcellulose (MC)) 94 % of control; (dose: 15.0 mg/kg/injection, schedule: Q01DX Z (oral), vehicle: methylcellulose (MC)) 90 % of control; (dose: 30.0 mg/kg/injection, schedule: Q01DX Z (ip), vehicle: methylcellulose (MC)) 96 % of control; (dose: 30.0 mg/kg/injection, schedule: Q01DX Z (oral), vehicle: methylcellulose (MC)) 87 % of control.

Take `CCCCc1nc2c(O)ccc(O)c2nc1C`: the T/C by setting is: (dose: 75.0 mg/kg/injection, schedule: Q01DX001 (ip), vehicle: other) 93 % of control; (dose: 75.0 mg/kg/injection, schedule: Q04DX003 (ip), vehicle: other) 101 % of control; (dose: 150.0 mg/kg/injection, schedule: Q01DX001 (ip), vehicle: other) 88 % of control; (dose: 150.0 mg/kg/injection, schedule: Q04DX003 (ip), vehicle: other) 104 % of control; (dose: 300.0 mg/kg/injection, schedule: Q01DX001 (ip), vehicle: other) 87 % of control.

On to `COc1ccc(Cl)cc1NC(=O)c1ccc(C(=O)Nc2cc(Cl)ccc2OC)cc1`, for which the T/C by setting is: under setting [7], 109 % of control; under setting [1], 90 % of control; under setting [3], 86 % of control and 92 % of control; under setting [5], 94 % of control.

As to `N[P+](c1ccccc1)(c1ccccc1)c1ccccc1`, the T/C was 109 % of control (dose: 12.5 mg/kg/injection, schedule: Q04DX002 (ip), vehicle: Klucel (hydroxypropylcellulose) (HPC)) and 88 % of control (dose: 25.0 mg/kg/injection, schedule: Q04DX002 (ip), vehicle: Klucel (hydroxypropylcellulose) (HPC)).

As to `CN(C)C=C(S(C)(=O)=O)S(C)(=O)=O`, the T/C was 97 % of control (dose: 75.0 mg/kg/injection, schedule: Q04DX003 (ip), vehicle: saline); 101 % of control under setting [8]; 97 % of control (dose: 150.0 mg/kg/injection, schedule: Q04DX003 (ip), vehicle: saline); 109 % of control under setting [9]; 101 % of control (dose: 300.0 mg/kg/injection, schedule: Q04DX003 (ip), vehicle: saline); 98 % of control (dose: 400.0 mg/kg/injection, schedule: Q01DX009 (ip), vehicle: saline).

Regarding `CCCC[N+](C)(CCCC)CCCC`, for the setting “dose: 75.0 mg/kg/injection, schedule: Q01DX001 (ip), vehicle: saline”, the T/C was 101 % of control.

Regarding `COc1ccccc1NC(=O)c1ccccc1`, the T/C under setting [1] was 89 % of control and the T/C under setting [5] is 95 % of control.

As to `Nc1ccc(C(=O)NC(CCC(=O)O)C(=O)O)cc1` (configuration not stated), the T/C was 92 % of control (dose: 100.0 mg/kg/injection, schedule: Q04DX002 (ip), vehicle: saline with Tween-80); 95 % of control (dose: 200.0 mg/kg/injection, schedule: Q04DX002 (ip), vehicle: saline with Tween-80); 92 % of control (dose: 400.0 mg/kg/injection, schedule: Q04DX002 (ip), vehicle: saline with Tween-80).

Turning to `[Se]=P(N1CCCCC1)(N1CCCCC1)N1CCCCC1`, the T/C is 98 % of control under setting [10], 104 % of control under setting [7] and 87 % of control under setting [1].

With `COc1cccc(/C=C2/COC/C(=C\c3cccc(OC)c3OC)C2=O)c1OC`, the T/C by setting is: under setting [8], 91 % of control; under setting [9], 97 % of control.

Consider `OCCNCc1cccc(-c2ccccc2)c1O`, for which the T/C was 93 % of control under setting [11], 87 % of control under setting [12] and 101 % of control under setting [13].

As for `O=[N+]([O-])c1ccc(N2CCC(CCCC3CCN(c4ccc([N+](=O)[O-])cc4[N+](=O)[O-])CC3)CC2)c([N+](=O)[O-])c1`, the T/C is 101 % of control under setting [10]; 93 % of control under setting [7]; 95 % of control and 105 % of control under setting [1]; 98 % of control under setting [2]; 97 % of control under setting [4]; 104 % of control under setting [6].

With `O=C(COc1ccc(Cl)cc1)Nc1cccnc1`, the T/C under setting [10] is 100 % of control; the T/C under setting [14] was 100 % of control; the T/C under setting [7] was 92 % of control; the T/C (dose: 50.0 mg/kg/injection, schedule: Q04DX003 (ip), vehicle: Klucel (hydroxypropylcellulose) (HPC)) is 94 % of control; the T/C under setting [2] was 103 % of control.

Take `Nc1c(Br)cc2c(c1Br)C(=O)c1ccccc1-2`: the T/C by setting is: (dose: 100.0 mg/kg/injection, schedule: Q01DX001 (ip), vehicle: carboxymethylcellulose (CMC)) 98 % of control; (dose: 200.0 mg/kg/injection, schedule: Q01DX001 (ip), vehicle: carboxymethylcellulose (CMC)) 109 % of control; (dose: 400.0 mg/kg/injection, schedule: Q01DX001 (ip), vehicle: carboxymethylcellulose (CMC)) 102 % of control.

On to `CC(=O)C(CCC#N)C(C)=O.CC(=O)C(CCC#N)C(C)=O.[Cu]`, for which the T/C is, setting by setting: (dose: 6.25 mg/kg/injection, schedule: Q01DX009 (ip), vehicle: Klucel (hydroxypropylcellulose) (HPC)) 95 % of control; (dose: 12.5 mg/kg/injection, schedule: Q01DX009 (ip), vehicle: Klucel (hydroxypropylcellulose) (HPC)) 98 % of control; (dose: 12.5 mg/kg/injection, schedule: Q04DX003 (ip), vehicle: Klucel (hydroxypropylcellulose) (HPC)) 90 % of control; under setting [10], 87 % of control; under setting [14], 91 % of control.

In the case of `CC(=O)N1C(=O)N(Cl)C(=O)C1(C)c1cccs1` (configuration not stated), the T/C runs as follows: under setting [11], 107 % of control; (dose: 100.0 mg/kg/injection, schedule: Q04DX003 (ip), vehicle: saline with Tween-80) 105 % of control; under setting [12], 101 % of control; (dose: 200.0 mg/kg/injection, schedule: Q04DX003 (ip), vehicle: saline with Tween-80) 103 % of control; under setting [13], 93 % of control; (dose: 400.0 mg/kg/injection, schedule: Q04DX003 (ip), vehicle: saline with Tween-80) 106 % of control.
